From patent US20120252792A1, “METHODS AND COMPOSITIONS FOR MODULATING RHO-MEDIATED GENE TRANSCRIPTION” (THE REGENTS OF THE UNIVERSITY OF MICHIGAN, priority 2009, published 2012)

Tests used:
Assay type in all cases: cell-based, human
Rho/MKL1 pathway = assay: SRE.L-firefly luciferase reporter (dual luciferase assay), Gα12QL-transfected PC-3 cells; conditions: Homo sapiens, 19 h; for inhibition at 10 µM / inhibition at 100 µM: DMSO alone = 0%; for inhibition at 10 µM: read-out: % inh SRE.L (10 μM); for inhibition at 100 µM: read-out: % inh SRE.L (100 μM)
Procedure: (§1) Dual Luciferase Assay: Seed PC-3 prostate cancer cells (40,000 cells/well) were grown in 96-well plates in 10% FBS containing DMEM medium. Cells were transiently transfected with the Gα12QL activator of the Rho/MKL1 pathway, along with the SRE.L-firefly luciferase reporter construct for 6 hours. Additionally, cells were co-transfected with the TK-Renilla luciferase reporter as an indicator of non-specific compound effects. Various concentrations of selected compounds were added to the 96-well plates. Plates were incubated for 19 hours at 37° C. and 5% CO2 in 0.5% FBS containing DMEM medium. Cells were lysed with 1X Passive Lysis Buffer (Promega). Plates were incubated for 30 minutes at room temperature. Luminescence counts were read with a Victor2 (Perkin-Elmer) plate reader.

[1] = test system: PC-3 prostate cancer cells; assay: WST1 cell viability assay; conditions: Homo sapiens, PC-3 cells, just before lysis; for inhibition at 10 µM: PC-3, 10 μM, read-out: % inh WST-1 (10 μM); for inhibition at 100 µM: PC-3, 100 μM, read-out: % inh WST-1 (100 μM)
Procedure: WST1 Cell Viability Assay: One hour prior to cell lysis for the dual luciferase assay, 10 μl per well of WST1 reagent (Roche) was added to the 96-well plates. Plates were incubated for 1 hour at 37° C. and 5% CO2. Cell viability was measured by WST1 absorbance at 450 nm with a Victor2 (Perkin-Elmer) plate reader.

[2] = test system: TK-Renilla luciferase reporter; assay: TK-Renilla (pRL-TK) luciferase reporter, indicator of non-specific compound effects; conditions: Homo sapiens, PC-3, 19 h, PC-3 cells; for inhibition at 10 µM: read-out: % inh PRL-TK (10 μM); for inhibition at 100 µM: read-out: % inh PRL-TK (100 μM)
Procedure: as §1

Row | SMILES | IC50 (Rho/MKL1 pathway) [µM] | inhibition at 10 µM (Rho/MKL1 pathway) [%] | inhibition at 100 µM (Rho/MKL1 pathway) [%] | inhibition at 10 µM [1] [%] | inhibition at 100 µM [1] [%] | inhibition at 10 µM [2] [%] | inhibition at 100 µM [2] [%]
1 | O=C(CONC(=O)c1cc(C(F)(F)F)cc(C(F)(F)F)c1)Nc1ccc(Cl)cc1 [Compound 1, N-(2-(4-chlorophenylamino)-2-oxoethoxy)-3,5-bis(trifluoromethyl)benzamide] | 4.7 | 71 | 100 | 42 | 91 | 53 | 89
2 | O=C(CCCNC(=O)c1cc(C(F)(F)F)cc(C(F)(F)F)c1)Nc1ccc(Cl)cc1 [Compound 2, N-(4-(4-chlorophenylamino)-4-oxobutyl)-3,5-bis(trifluoromethyl)benzamide] | 21 | 37 | 79 | 0 | 12 | 5 | 42
3 | O=C(CNC(=O)c1cc(C(F)(F)F)cc(C(F)(F)F)c1)Nc1ccc(Cl)cc1 [Compound 3, N-(2-(4-chlorophenylamino)-2-oxoethyl)-3,5-bis(trifluoromethyl)benzamide] | 33 | 45 | 85 | 0 | 30 | 15 | 25
4 | O=C(Nc1ccc(Cl)cc1)C1CCN(C(=O)c2cc(C(F)(F)F)cc(C(F)(F)F)c2)CC1 [Compound 5, 1-(3,5-bis(trifluoromethyl)benzoyl)-N-(4-chlorophenyl)piperidine-4-carboxamide] | 16 | 17 | 87 | 0 | 39 | 0 | 17
5 | O=C(CONC(=O)c1ccc(Cl)cc1)Nc1cc(C(F)(F)F)cc(C(F)(F)F)c1 [Compound 6, N-(2-(3,5-bis(trifluoromethyl)phenylamino)-2-oxoethoxy)-4-chlorobenzamide] | 8.6 | 58 | 100 | 11 | 96 | 19 | 87
6 | O=C(Nc1ccc(Cl)cc1)C1CCCN1C(=O)c1cc(C(F)(F)F)cc(C(F)(F)F)c1 (stereo not shown) [Compound 7, 1-(3,5-bis(trifluoromethyl)benzoyl)-N-(4-chlorophenyl)pyrrolidine-2-carboxamide] | 69 | 23 | 83 | 0 | 22 | 12 | 27
7 | O=C(CONC(=O)c1cc(C(F)(F)F)cc(C(F)(F)F)c1)Nc1cccc(Cl)c1 [Compound 10, N-(2-(3-chlorophenylamino)-2-oxoethoxy)-3,5-bis(trifluoromethyl)benzamide] | 5.9 | 65 | 100 | 49 | 97 | 51 | 89
8 | O=C(Nc1ccc(Cl)cc1)c1cccc(NC(=O)c2cc(C(F)(F)F)cc(C(F)(F)F)c2)c1 [Compound 14, N-(3-(4-chlorophenylcarbamoyl)phenyl)-3,5-bis(trifluoromethyl)benzamide] | 1.7 | 79 | – | 38 | – | 0 | –
9 | O=C(NCCCNc1ccc(Cl)cc1)c1cc(C(F)(F)F)cc(C(F)(F)F)c1 [Compound 15, N-(3-(4-chlorophenylamino)propyl)-3,5-bis(trifluoromethyl)benzamide] | 5.1 | 70 | 80 | 0 | 11 | 37 | 35
10 | O=C(Nc1ccccc1C(=O)Nc1ccc(Cl)cc1)c1cc(C(F)(F)F)cc(C(F)(F)F)c1 [Compound 16, N-(2-(4-chlorophenylcarbamoyl)phenyl)-3,5-bis(trifluoromethyl)benzamide] | 18 | 34 | – | 0 | – | 0 | –
